# Results from patent publication US6737383B1, “Herbicidal oxadiazolidines” (priority 1999, dated 2004).
# Tests used:
# corn = assay: Test B pre/postemergence corn; format: in vivo, Zea mays
# Outline: (§1)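 Response is a visual 0-to-10 score relative to untreated plants, where 0 means no effect and 10 means complete control, taken twelve to sixteen days after application. Treatments went onto soil at planting and onto foliage of 1- to 4-leaf plants, using a surfactant-containing non-phytotoxic solvent.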
# bamyardgrass = assay: Test B flood test barnyardgrass; format: in vivo, Echinochloa crus-galli
# Outline: (§2)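 Flood test on plants grown to the 2-leaf stage; treated plants kept in greenhouse twelve to sixteen days, then visually rated against controls on a 0 (no effect) to 10 (complete control) scale.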
# cocklebur = assay: Test B pre/postemergence cocklebur; format: in vivo, Xanthium strumarium
# Outline: as §1
# surinam grass = assay: Test B pre/postemergence surinam grass; format: in vivo, Brachiaria decumbens
# Outline: as §1
# bedstraw = assay: Test B pre/postemergence bedstraw; format: in vivo, Galium aparine
# Outline: as §1
# velvetleaf = assay: Test B pre/postemergence velvetleaf; format: in vivo, Abutilon theophrasti
# Outline: as §1
# wild oat = assay: Test B pre/postemergence wild oat; format: in vivo, Avena fatua
# Outline: as §1
# crabgrass = assay: Test B pre/postemergence crabgrass; format: in vivo, Digitaria sanguinalis
# Outline: as §1
# rice = assay: Test B flood test rice; format: in vivo, Oryza sativa
# Outline: as §2
# pigweed = assay: Test B pre/postemergence pigweed; format: in vivo, Amaranthus retroflexus
# Outline: as §1
# smallflower flatsedge = assay: Test B flood test smallflower flatsedge; format: in vivo, Cyperus difformis
# Outline: as §2
# soybean = assay: Test B pre/postemergence soybean; format: in vivo, Glycine max
# Outline: as §1
# blackgrass = assay: Test B pre/postemergence blackgrass; format: in vivo, Alopecurus myosuroides
# Outline: as §1
# purple nutsedge = assay: Test B pre/postemergence purple nutsedge; format: in vivo, Cyperus rotundus
# Outline: as §1
# sugar beet = assay: Test B pre/postemergence sugar beet; format: in vivo, Beta vulgaris
# Outline: as §1
# giant foxtail = assay: Test B pre/postemergence giant foxtail; format: in vivo, Setaria faberii
# Outline: as §1
# [1] = Preemergence, Rate 31 g/ha, visual rating, scale 0 to 10 (0 no effect, 10 complete control)
# [2] = Preemergence, Rate 62 g/ha, scale of 0 to 10 where 0 is no effect and 10 is complete control
# [3] = Preemergence, Rate 250 g/ha, scale of 0 to 10 where 0 is no effect and 10 is complete control
# [4] = Preemergence, Rate 500 g/ha, scale of 0 to 10 where 0 is no effect and 10 is complete control
# [5] = Rate 31 g/ha, Postemergence, scale 0 to 10
# [6] = Rate 62 g/ha, Postemergence, scale of 0 to 10 where 0 is no effect and 10 is complete control
# [7] = Rate 125 g/ha, Postemergence, scale 0 to 10
# [8] = Rate 125 g/ha, Preemergence, scale of 0 to 10 where 0 is no effect and 10 is complete control
# [9] = Rate 500 g/ha, Postemergence, scale 0 to 10, 0 no effect, 10 complete control
# [10] = Rate 62 g/ha, headed Pre-emergence (flood test species), scale 0 to 10 (0 no effect, 10 complete control)
# [11] = Rate 125 g/ha, Pre-emergence, flood test species, scale 0 to 10 where 0 is no effect and 10 is complete control
# [12] = Rate 250 g/ha, Pre-emergence, flood-test species, scale 0 to 10, 0 is no effect, 10 is complete control
# [13] = Rate 500 g/ha, Pre-emergence, flood test species, scale 0 to 10 (0 no effect, 10 complete control)
structure (smiles),measurement,setting,value
CC(C)N(C(=O)n1oc(=O)n(N(C)C)c1=O)c1ccccc1 [Compound 225],Corn plant response rating,corn; [1],0
same,Corn plant response rating,corn; [2],0
same,Corn plant response rating,corn; [3],4
same,"Plant response rating, Corn",corn; [4],6
same,Corn plant response rating,corn; [5],0
same,Corn plant response rating,corn; [6],0
same,Corn plant response rating,corn; [7],2
same,Corn plant response rating,corn; [8],3
same,"Plant response rating (0 to 10; 0 is no effect, 10 is complete control), Corn","corn; Rate 250 g/ha, Postemergence",2
same,Corn plant response rating,corn; [9],6
same,Barnyardgrass plant response rating,bamyardgrass; [10],0
same,Barnyardgrass plant response rating,bamyardgrass; [11],0
same,Barnyardgrass plant response rating,bamyardgrass; [12],0
same,Barnyardgrass plant response rating,bamyardgrass; [13],0
same,Cocklebur plant response rating,cocklebur; [1],0
same,Cocklebur plant response rating,cocklebur; [2],0
same,Cocklebur plant response rating,cocklebur; [3],2
same,"Plant response rating, Cocklebur",cocklebur; [4],2
same,Cocklebur plant response rating,cocklebur; [5],0
same,Cocklebur plant response rating,cocklebur; [6],0
same,Cocklebur plant response rating,cocklebur; [7],0
same,Cocklebur plant response rating,cocklebur; [8],2
same,"Plant response rating (0 to 10; 0 is no effect, 10 is complete control), Cocklebur","cocklebur; Rate 250 g/ha, Postemergence",0
same,Cocklebur plant response rating,cocklebur; [9],0
same,B. signalgrass plant response rating,surinam grass; [1],0
same,B. signalgrass plant response rating,surinam grass; [2],1
same,B. signalgrass plant response rating,"surinam grass; Preemergence, Rate 250 g/ha, scale 0 to 10, 0 is no effect, 10 is complete control",7
same,"Plant response rating, B. signalgrass",surinam grass; [4],7
same,B. signalgrass plant response rating,surinam grass; [5],0
same,B. signalgrass plant response rating,surinam grass; [6],2
same,B. signalgrass plant response rating,"surinam grass; Rate 125 g/ha, Postemergence, scale 0 (no effect) to 10 (complete control)",5
same,B. signalgrass plant response rating,surinam grass; [8],7
same,"Plant response rating (0 to 10; 0 is no effect, 10 is complete control), B. signalgrass","surinam grass; Rate 250 g/ha, Postemergence",5
same,B. signalgrass plant response rating,surinam grass; [9],9
same,Bedstraw plant response rating,bedstraw; [2],0
same,Bedstraw plant response rating,bedstraw; [3],0
same,"Plant response rating, Bedstraw",bedstraw; [4],2
same,Bedstraw plant response rating,bedstraw; [6],0
same,Bedstraw plant response rating,bedstraw; [7],0
same,Bedstraw plant response rating,bedstraw; [8],0
same,"Plant response rating (0 to 10; 0 is no effect, 10 is complete control), Bedstraw","bedstraw; Rate 250 g/ha, Postemergence",0
same,Bedstraw plant response rating,bedstraw; [9],0
same,Velvetleaf plant response rating,velvetleaf; [1],0
same,Velvetleaf plant response rating,velvetleaf; [2],4
same,Velvetleaf plant response rating,velvetleaf; [3],6
same,"Plant response rating, Velvetleaf",velvetleaf; [4],7
same,Velvetleaf plant response rating,velvetleaf; [6],0
same,Velvetleaf plant response rating,velvetleaf; [7],0
same,Velvetleaf plant response rating,velvetleaf; [8],5
same,"Plant response rating (0 to 10; 0 is no effect, 10 is complete control), Velvetleaf","velvetleaf; Rate 250 g/ha, Postemergence",0
same,Velvetleaf plant response rating,velvetleaf; [9],3
same,Wild oats plant response rating,wild oat; [1],0
same,Wild oats plant response rating,wild oat; [2],4
same,Wild oats plant response rating,wild oat; [3],10
same,"Plant response rating, Wild oats",wild oat; [4],10
same,Wild oats plant response rating,wild oat; [6],0
same,Wild oats plant response rating,wild oat; [7],2
same,Wild oats plant response rating,wild oat; [8],7
same,"Plant response rating (0 to 10; 0 is no effect, 10 is complete control), Wild oats","wild oat; Rate 250 g/ha, Postemergence",3
same,Wild oats plant response rating,wild oat; [9],2
same,Crabgrass plant response rating,crabgrass; [1],2
same,Crabgrass plant response rating,crabgrass; [2],9
same,Crabgrass plant response rating,crabgrass; [3],10
same,"Plant response rating, Crabgrass",crabgrass; [4],10
same,Crabgrass plant response rating,crabgrass; [5],0
same,Crabgrass plant response rating,crabgrass; [6],5
same,Crabgrass plant response rating,crabgrass; [7],8
same,Crabgrass plant response rating,crabgrass; [8],10
same,Crabgrass plant response rating,crabgrass; [9],8
same,Rice plant response rating,rice; [10],0
same,Rice plant response rating,rice; [11],0
same,Rice plant response rating,rice; [12],0
same,Rice plant response rating,rice; [13],0
same,Redroot pigweed plant response rating,pigweed; [1],6
same,Redroot pigweed plant response rating,pigweed; [2],6
same,Redroot pigweed plant response rating,pigweed; [3],10
same,"Plant response rating, Redroot pigweed",pigweed; [4],10
same,Redroot pigweed plant response rating,pigweed; [5],0
same,Redroot pigweed plant response rating,pigweed; [6],0
same,Redroot pigweed plant response rating,pigweed; [7],0
same,Redroot pigweed plant response rating,pigweed; [8],7
same,"Plant response rating (0 to 10; 0 is no effect, 10 is complete control), Redroot pigweed","pigweed; Rate 250 g/ha, Postemergence",0
same,Redroot pigweed plant response rating,pigweed; [9],2
same,S. Flatsedge plant response rating,smallflower flatsedge; [10],0
same,S. Flatsedge plant response rating,smallflower flatsedge; [11],0
same,S. Flatsedge plant response rating,smallflower flatsedge; [12],0
same,S. Flatsedge plant response rating,smallflower flatsedge; [13],0
same,Soybean plant response rating,soybean; [1],0
same,Soybean plant response rating,soybean; [2],0
same,Soybean plant response rating,soybean; [3],3
same,"Plant response rating, Soybean",soybean; [4],6
same,Soybean plant response rating,soybean; [6],2
same,Soybean plant response rating,soybean; [7],3
same,Soybean plant response rating,soybean; [8],2
same,"Plant response rating (0 to 10; 0 is no effect, 10 is complete control), Soybean","soybean; Rate 250 g/ha, Postemergence",5
same,Soybean plant response rating,soybean; [9],4
same,Blackgrass plant response rating,blackgrass; [1],0
same,Blackgrass plant response rating,blackgrass; [2],2
same,Blackgrass plant response rating,blackgrass; [3],10
same,"Plant response rating, Blackgrass",blackgrass; [4],10
same,Blackgrass plant response rating,blackgrass; [5],0
same,Blackgrass plant response rating,blackgrass; [6],6
same,Blackgrass plant response rating,blackgrass; [7],9
same,Blackgrass plant response rating,blackgrass; [8],10
same,"Plant response rating (0 to 10; 0 is no effect, 10 is complete control), Blackgrass","blackgrass; Rate 250 g/ha, Postemergence",9
same,Blackgrass plant response rating,blackgrass; [9],8
same,Nutsedge plant response rating,purple nutsedge; [1],0
same,Nutsedge plant response rating,purple nutsedge; [2],7
same,Nutsedge plant response rating,purple nutsedge; [3],8
same,"Plant response rating, Nutsedge",purple nutsedge; [4],10
same,Nutsedge plant response rating,purple nutsedge; [5],0
same,Nutsedge plant response rating,purple nutsedge; [6],0
same,Nutsedge plant response rating,purple nutsedge; [7],0
same,Nutsedge plant response rating,purple nutsedge; [8],7
same,"Plant response rating (0 to 10; 0 is no effect, 10 is complete control), Nutsedge","purple nutsedge; Rate 250 g/ha, Postemergence",0
same,Nutsedge plant response rating,purple nutsedge; [9],2
same,Sugarbeets plant response rating,sugar beet; [1],0
same,Sugarbeets plant response rating,sugar beet; [2],0
same,Sugarbeets plant response rating,sugar beet; [3],5
same,"Plant response rating, Sugarbeets",sugar beet; [4],6
same,Sugarbeets plant response rating,sugar beet; [6],0
same,Sugarbeets plant response rating,sugar beet; [7],0
same,Sugarbeets plant response rating,sugar beet; [8],2
same,"Plant response rating (0 to 10; 0 is no effect, 10 is complete control), Sugarbeets","sugar beet; Rate 250 g/ha, Postemergence",3
same,Sugarbeets plant response rating,sugar beet; [9],2
same,Giant foxtail plant response rating,giant foxtail; [1],8
same,Giant foxtail plant response rating,giant foxtail; [2],8
same,Giant foxtail plant response rating,giant foxtail; [3],10
same,"Plant response rating, Giant foxtail",giant foxtail; [4],10
same,Giant foxtail plant response rating,giant foxtail; [5],0
same,Giant foxtail plant response rating,giant foxtail; [6],8
same,Giant foxtail plant response rating,giant foxtail; [7],8
same,Giant foxtail plant response rating,giant foxtail; [8],10
same,"Plant response rating (0 to 10; 0 is no effect, 10 is complete control), Giant foxtail","giant foxtail; Rate 250 g/ha, Postemergence",8
same,Giant foxtail plant response rating,giant foxtail; [9],9
